Measurements published in patent publication US11596716B2, “Compounds and matrices for use in bone growth and repair” (Human BioMolecular Research Institute, priority 2013, dated 2023).
Like-named read-outs stand apart in the source and are kept apart here.

How the values were obtained:
[1] = system: C2C12 cells; experiment: Alkaline Phosphatase (ALP) functional activity assay in C2C12 cells; type: cell-based, Mouse; settings: normalized to DMSO treatment; for activation at 0.5 µM: Mus musculus, C2C12, 144 h
Protocol: Alkaline Phosphatase (ALP) Functional Activity Assay: C2C12 cells were plated into 12-well plates with 7,000 cells/well in 1 mL growth media. […] 1, 2, 3, or 4 in 0.1% DMSO was added (500 nM). Half the media was exchanged with fresh media containing compound every 48 hrs. After 6 days, media was removed, ALP Lysis Buffer (10 mM Tris-HCl pH 8.0, 1 mM MgCl2, and 1% Triton X100) added, and cell lysate obtained (10 min incubation at RT) by centrifugation (5 min at 3500× g at 4° C.). Para-nitrophenol phosphate (pNPP) (2 mg/mL) was incubated with 50 μl cell lysate (10 mins, 37° C.). After addition of […] 0.02 N NaOH, absorbance OD405 was measured. Protein concentration was determined by Bradford protein assay. Results of ALP activity were plotted as nM pNP hydrolyzed/mg total protein. After normalizing control samples (i.e., DMSO-treated samples) to one-fold, the fold-changes were plotted to indicate the relative ALP activity. […] This protocol was applied to hMSC and E15 cells as well.

[2] = system: Wnt transcription; experiment: WNT transcriptional reporter assay (Super(8×)TOPflash luciferase, HEK293T cells); type: cell-based; settings: Wnt3A-expressing vector, 20 hrs, relative to cells treated with DMSO alone, read-out: Wnt transcription potency
Source text: Commercially available Super(8×)TOPflash vector driven by a (7×) TCF-firefly luciferase response element was transiently transfected into HEK293T cells, together with a TK-driven Renilla luciferase plasmid as an internal control to normalize the luminescence signal and a Wnt3A-expressing vector as the source of pathway activation. HEK293T cells were transfected with plasmids in DMEM plus 10% fetal bovine serum (FBS) for 8 hr, replated to 96-well plates in DMEM plus 10% FBS followed by treatment with compounds (1.6 nM to 5 M) (DMSO final concentration is 0.5%) for 20 hrs. Firefly and Renilla luciferase activities were measured and normalized by the Renilla luciferase values.

[3] = system: hMSCs; experiment: qPCR of target gene mRNA expression in hMSCs; type: cell-based, human; settings: hMSCs, comparison with compound 3 and calcium phosphate ceramic
Protocol: qPCR detection of osteogenic markers: Cells were cultured with compound in the presence or absence of matrix as described above, but using 96-well plate format. Total RNA was extracted from cells (as above) using Trizol. cDNA was made using 750 ng of total RNA with Bio-Rad iscript kit and was diluted 20-fold before being used for qPCR. qPCR was conducted under the following conditions: 95° C., 2 min; 95° C., 10 s and 60° C., 45 s for 40 cycles; 60° C. for 71 cycles for melt curve. qPCR results were analyzed by the ΔΔCt method. 18s rRNA was used as an internal standard. This protocol was applied to hMSC and E15 cells.
Runx2 and BMP-2 are osteogenic markers; Axin2, Wnt3a, and Sox 9 are Wnt-inducible gene markers.
The assay for mRNA expression followed the same procedure with hMSCs as described for C2C12 cells (Example 7).

[4] = compounds of Formula II or IV, absence of matrix
[5] = compounds of Formula II or IV, presence of calcium phosphate matrix
[6] = compounds of Formula VI, absence of matrix
[7] = compounds of Formula VI, presence of calcium phosphate matrix

With `Cc1nc2c(-c3ccccc3)cnn2c(N2CCN(C)CC2)c1C` [Compound 31, 3-phenyl-5,6-dimethyl-7-(N-methyl-N-piperazinyl)-pyrazolo[1,5-a]pyrimidine] the “ALP activity −matrix” value [1, 4] was “+ (5-50%)”, the “ALP activity +matrix” value [1, 5] was “+ (5-50%)” and the EC50 [2] was 15 to 40 nM.
Work on `Cc1nc2c(-c3ccccc3)cnn2c(NCCC(C)C)c1C` [Compound 32, 3-phenyl-5,6-dimethyl-7-[N-(3-methylbutyl)amino]-pyrazolo[1,5-a]pyrimidine] yielded an activation at 0.5 µM [1, 4] of less than 5%, an activation at 0.5 µM [1, 5] of less than 5% and an EC50 ([2]; Homo sapiens, HEK-293T) greater than 40 nM.
`COc1cc(C=CC(=O)C=C(O)C=Cc2ccc(O)c(OC)c2)ccc1O` [Compound 38, 1,7-Bis(4-hydroxy-3-methoxyphenyl)-5-hydroxy-hepta-1,4,6-trien-3-one] was tested, and the activation at 0.5 µM [1, 6] was 5 to 50%, the activation at 0.5 µM [1, 7] was greater than 100% and the “robust mRNA up-regulation of VDR or ALP” value [3] was “not observed”.
For `COc1cc(N(C)C)ccc1C=CC(=O)C1CCCC(=Cc2ccc(N(C)C)cc2OC)C1=O` (centres unmarked) [Compound 59, 2-(4-N,N-dimethylamino-2-methoxybenzylidene)-6-(3-(4-N,N-dimethylamino-2-methoxyphenyl)acryloyl)cyclohexanone], the “ALP activity −matrix” value [1, 6] was “− (<5%)” and the “ALP activity +matrix” value [1, 7] was “++ (50-100%)”.
Compound `O=C(CCc1ccc(O)cc1)C1CCCC(Cc2ccc(O)cc2)C1=O` (centres unmarked) [Compound 62, 2-(4-Hydroxybenzyl)-6-(3-(4-hydroxyphenyl)propanoyl)cyclohexanone] has an activation at 0.5 µM [1, 6] of less than 5% and an activation at 0.5 µM [1, 7] of 5 to 50%.
Compound `O=C(C=C(O)CCc1ccc(O)cc1)CCc1ccc(O)cc1` [Compound 63, 5-Hydroxy-1,7-bis(4-hydroxyphenyl)hept-4-en-3-one] has an activation at 0.5 µM [1, 6] of 5 to 50% and an activation at 0.5 µM [1, 7] of 50 to 100%.
`O=C(C=CC1CCCCC1)C1CCCC(=CC2CCCCC2)C1=O` (centres unmarked) [Compound 64, 2-(3-Cyclohexylacryloyl)-6-(cyclohexylmethylene)cyclohexanone] showed an activation at 0.5 µM [1, 6] of 5 to 50% and an activation at 0.5 µM [1, 7] of 5 to 50%.
`NCCCCC(N)C(=O)Oc1ccc(C=CC(=O)CC(=O)C=Cc2ccc(OC(=O)C(N)CCCCN)cc2)cc1` [Compound 69, (2S,2′S)—O,O′-(3,5-Dioxohepta-1,6-diene-1,7-diyl)bis(4,1-phenylene) bis(2,6-bis-amino)hexanoate] was tested, and the “ALP activity −matrix” value [1, 6] was “− (<5%)” and the “ALP activity +matrix” value [1, 7] was “+ (5-50%)”.
`COc1cc(C=CC(=O)C=C(O)C=Cc2ccc(OC(=O)[C@@H](N)C(C)C)c(OC)c2)ccc1OC(=O)[C@@H](N)C(C)C` [Compound 71, (2S,2′S)—O,O′-(3-hydroxy-5-oxohepta-1,3,6-triene-1,7-diyl)bis(2-methoxy-4,1-phenylene) bis(2-amino-3-methylbutanoate)] was tested, and the “ALP activity −matrix” value [1, 6] was “+ (5-50%)” and the “ALP activity +matrix” value [1, 7] was “+ (5-50%)”.
In the case of `COc1cc(C=CC(=O)C2CCCC(=Cc3ccc(OC(=O)C(N)CCCCN)c(OC)c3)C2=O)ccc1OC(=O)C(N)CCCCN` (centres unmarked) [Compound 80, 4-(3-(3-(4-(2,6-diaminohexanoyloxy)-3-methoxybenzylidene)-2-oxocyclohexyl)-3-oxoprop-1-enyl)-2-methoxyphenyl bis(2,6-diaminohexanoate)], the “ALP activity −matrix” value [1, 6] is reported as “− (<5%)” and the “ALP activity +matrix” value [1, 7] is reported as “+ (5-50%)”.
`CC(C)[C@H](NC(=O)OC(C)(C)C)C(=O)Oc1ccc(C=CC(O)=CC(=O)C=Cc2ccc(O)cc2)cc1` [Compound 83, (S)-4-(3-hydroxy-7-(4-hydroxyphenyl)-5-oxohepta-1,3,6-trienyl)phenyl 2-N-Boc-amino-3-methylbutanoate] was tested, and the “ALP activity −matrix” value [1, 6] was “+ (5-50%)” and the “ALP activity +matrix” value [1, 7] was “− (<5%)”.
With “(2S,2′S)4-(3-(3-(4-(2-amino-3-methylbutanoyloxy)-3-methoxybenzylidene)-2-oxocyclohexyl)-3-oxoprop-1-enyl)-2-methoxyphenyl bis(2-(tert-butoxycarbonylamino)-3-methylbutanoate) [Compound 78]” the “ALP activity −matrix” value [1, 6] was “− (<5%)” and the “ALP activity +matrix” value [1, 7] was “+ (5-50%)”.
“cis-1-acetyl-4-(phenylamino)-1,2,3,4-tetrahydroquinoline [Compound 20]” was tested, and the “ALP activity −matrix” value [1, 4] was “− (<5%)” and the “ALP activity +matrix” value [1, 5] was “++ (50-100%)”.
